For 1 cell line, relative viability results are on record in the supplement of paper PMC10307832.

What all share (assay): relative viability (nuclei count vs DMSO), 5 days (fraction); higher = more cells survive
Compound in assay [1]: Cc1ccc2nc(NCCN)c3ncc(C)n3c2c1 + Nc1nc2[nH]cc(CCc3ccc(C(=O)N[C@@H](CCC(=O)O)C(=O)O)cc3)c2c(=O)[nH]1 [Pemetrexed] (partner 0.2 µM)
The procedure, abridged:
(§1)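 Each reported value is a median over duplicate plates. It expresses relative viability: treated-well nuclei count divided by vehicle-well nuclei count. Lung cancer cell lines in 1536-well plates were dosed by pin tool a day after seeding, alone with one drug or with a fixed anchor-drug dose plus five library-drug doses (not always all listed) in √10 steps, and nuclei were counted after 5 days.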

Compound in assay [2]: O=C(/C=C/c1ccccc1)NC(NC(=S)Nc1cccc2cccnc12)C(Cl)(Cl)Cl [Salubrinal] + Nc1ncn([C@H]2C[C@H](O)[C@@H](CO)O2)c(=O)n1 [Decitabine] (partner 2 µM)
The procedure, abridged:
as §1

Compound in assay [3]: O=C(/C=C/c1ccccc1)NC(NC(=S)Nc1cccc2cccnc12)C(Cl)(Cl)Cl [Salubrinal] + CC(=O)c1c(C)c2cnc(Nc3ccc(N4CCNCC4)cn3)nc2n(C2CCCC2)c1=O [Palbociclib] (partner 0.5 µM)
The procedure, abridged: as §1

Compound in assay [4]: Cc1ccc2nc(NCCN)c3ncc(C)n3c2c1 + Nc1ncn([C@H]2C[C@H](O)[C@@H](CO)O2)c(=O)n1 [Decitabine] (partner 2 µM)
The gist of the method:
as §1

For the cell line UMC-11, the relative viability was found to be 0.858 in assay [1] (first compound 0.04 µM); 0.744 in assay [1] (first compound 0.1265 µM); 0.808 in assay [1] (first compound 0.4 µM); 0.734 in assay [1] (first compound 1.265 µM); 0.674 in assay [1] (first compound 4 µM); 0.548 in assay [2] (first compound 0.08 µM). The relative viability was 0.608 in assay [2] (first compound 0.253 µM); 0.674 in assay [2] (first compound 0.8 µM); 0.606 in assay [2] (first compound 2.53 µM); 0.561 in assay [2] (first compound 8 µM); 0.304 in assay [3] (first compound 0.08 µM); 0.344 in assay [3] (first compound 0.253 µM). The relative viability in assay [3] (first compound 0.8 µM) is 0.349; in assay [3] (first compound 2.53 µM) it was 0.313; in assay [3] (first compound 8 µM), 0.299; in assay [4] (first compound 0.04 µM), 0.606; in assay [4] (first compound 0.1265 µM) it was 0.432; in assay [4] (first compound 0.4 µM), 0.59. For the same cell line, the relative viability is 0.679 in assay [4] (first compound 1.265 µM) and 0.624 in assay [4] (first compound 4 µM).
